The term IC50 denotes the concentration that inhibits the measured activity by half. For orientation: residual activity means the share of the control activity or signal that is left under treatment. The Ki is the equilibrium dissociation constant of an inhibitor or competing ligand from its target. As usually defined, the viability is the share of living cells, or the viability signal relative to a control.

Where “and” joins values, the source holds several entries; their conditions need not be identical. Equal entries are not always repeated. Entries after “also recorded” stand apart in the source; their conditions may differ.

These results are taken from paper PMC8552465 (ACS Omega, 2021).

One data set addresses T1, recombinant human MAO-A (Homo sapiens, UniProt P21397).
T1 sequence (P21397 1-527): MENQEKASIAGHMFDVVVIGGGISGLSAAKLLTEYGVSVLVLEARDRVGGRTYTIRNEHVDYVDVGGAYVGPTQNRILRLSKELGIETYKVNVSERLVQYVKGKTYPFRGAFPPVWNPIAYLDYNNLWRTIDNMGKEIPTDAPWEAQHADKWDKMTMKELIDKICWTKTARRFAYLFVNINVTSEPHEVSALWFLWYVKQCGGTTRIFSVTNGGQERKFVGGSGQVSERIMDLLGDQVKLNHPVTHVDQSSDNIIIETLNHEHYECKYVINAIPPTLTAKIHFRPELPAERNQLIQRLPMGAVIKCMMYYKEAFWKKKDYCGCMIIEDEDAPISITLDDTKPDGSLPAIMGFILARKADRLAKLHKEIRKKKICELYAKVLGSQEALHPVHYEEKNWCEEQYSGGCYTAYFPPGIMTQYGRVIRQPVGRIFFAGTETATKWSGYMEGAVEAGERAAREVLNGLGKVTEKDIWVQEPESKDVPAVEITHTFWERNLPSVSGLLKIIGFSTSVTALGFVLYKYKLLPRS
The data set can be described thus: MAO-A inhibition assay. The class given is biochemical.

Data set [1] deals with T2, MAO-B (Homo sapiens, UniProt P27338).
T2 sequence (P27338 1-520): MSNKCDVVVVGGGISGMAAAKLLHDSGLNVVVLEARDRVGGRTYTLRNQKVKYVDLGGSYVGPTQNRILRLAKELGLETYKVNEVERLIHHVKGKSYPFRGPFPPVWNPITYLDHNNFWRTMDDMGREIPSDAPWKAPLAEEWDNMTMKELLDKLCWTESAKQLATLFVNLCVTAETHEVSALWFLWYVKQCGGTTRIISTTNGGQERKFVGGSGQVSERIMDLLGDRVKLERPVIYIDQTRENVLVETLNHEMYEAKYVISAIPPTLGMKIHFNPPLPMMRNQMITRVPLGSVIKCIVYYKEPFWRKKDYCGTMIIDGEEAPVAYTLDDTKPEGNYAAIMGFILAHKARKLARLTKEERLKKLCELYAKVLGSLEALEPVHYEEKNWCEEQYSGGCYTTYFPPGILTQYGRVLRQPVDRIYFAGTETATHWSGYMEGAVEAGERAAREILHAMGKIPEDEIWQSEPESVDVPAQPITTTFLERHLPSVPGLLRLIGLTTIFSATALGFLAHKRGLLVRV
The data set can be described thus: MAO-B inhibition assay. In kind it is biochemical. Conditions: read-out: residual activity at 10 μM (%) MAO-B.

The next data set has as its target AChE (Electrophorus electricus, UniProt O42275). The experiment in a line: AChE inhibition assay. The class given is biochemical.
The target in data set [2] is T3, BChE (Equus caballus, UniProt P81908). The data set can be described thus: BChE inhibition assay. In kind it is biochemical, equine.
The target in another data set is BACE-1 (Homo sapiens, UniProt P56817). The data set can be described thus: BACE-1 activity detection kit. In kind it is biochemical. Conditions: read-out: residual activity at 10 μM (%) BACE-1.
The target of data set [3] is T2, MAO-B. The data set can be described thus: Kinetics of MAO-B inhibition. In kind it is biochemical.
Data set [4] addresses T3, BChE. The experiment in a line: Kinetics of BChE inhibition. In kind it is biochemical, equine.
Data set [5] concerns the target T2, MAO-B. The data set can be described thus: Reversibility of MAO-B inhibition by dialysis. The class given is biochemical.
Data set [6] addresses T3, BChE. The data set can be described thus: Reversibility of BChE inhibition by dialysis. The class given is biochemical, equine.
The nature of data set [7]: In vitro toxicity by MTT on Vero cells. Conditions: African green monkey, Vero cells (African green monkey kidney epithelial cells), Vero cell viability, up to 100 μg/mL, 48 h, MTT.
The subject of the next data set is Vero cells. The data set can be described thus: In vitro toxicity by MTT on Vero cells.
The mark [8] stands for this setting: Lineweaver–Burk and secondary plots.

T3 sequence (P81908 whole entry): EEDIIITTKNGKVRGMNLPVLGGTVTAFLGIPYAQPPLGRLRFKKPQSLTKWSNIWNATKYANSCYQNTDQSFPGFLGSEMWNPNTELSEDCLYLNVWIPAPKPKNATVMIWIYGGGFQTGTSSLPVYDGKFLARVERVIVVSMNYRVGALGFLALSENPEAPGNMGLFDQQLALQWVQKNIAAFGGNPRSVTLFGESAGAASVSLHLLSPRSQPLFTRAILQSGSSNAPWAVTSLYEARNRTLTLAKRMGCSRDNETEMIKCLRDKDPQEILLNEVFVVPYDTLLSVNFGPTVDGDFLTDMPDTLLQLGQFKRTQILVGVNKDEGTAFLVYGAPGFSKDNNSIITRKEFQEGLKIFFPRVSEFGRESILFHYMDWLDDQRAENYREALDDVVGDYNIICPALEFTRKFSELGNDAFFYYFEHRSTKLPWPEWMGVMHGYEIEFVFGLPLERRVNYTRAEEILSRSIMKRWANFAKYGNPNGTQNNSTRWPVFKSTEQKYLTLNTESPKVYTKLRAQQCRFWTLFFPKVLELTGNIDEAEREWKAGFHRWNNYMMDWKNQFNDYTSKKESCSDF
AChE, sequence (O42275 24-633): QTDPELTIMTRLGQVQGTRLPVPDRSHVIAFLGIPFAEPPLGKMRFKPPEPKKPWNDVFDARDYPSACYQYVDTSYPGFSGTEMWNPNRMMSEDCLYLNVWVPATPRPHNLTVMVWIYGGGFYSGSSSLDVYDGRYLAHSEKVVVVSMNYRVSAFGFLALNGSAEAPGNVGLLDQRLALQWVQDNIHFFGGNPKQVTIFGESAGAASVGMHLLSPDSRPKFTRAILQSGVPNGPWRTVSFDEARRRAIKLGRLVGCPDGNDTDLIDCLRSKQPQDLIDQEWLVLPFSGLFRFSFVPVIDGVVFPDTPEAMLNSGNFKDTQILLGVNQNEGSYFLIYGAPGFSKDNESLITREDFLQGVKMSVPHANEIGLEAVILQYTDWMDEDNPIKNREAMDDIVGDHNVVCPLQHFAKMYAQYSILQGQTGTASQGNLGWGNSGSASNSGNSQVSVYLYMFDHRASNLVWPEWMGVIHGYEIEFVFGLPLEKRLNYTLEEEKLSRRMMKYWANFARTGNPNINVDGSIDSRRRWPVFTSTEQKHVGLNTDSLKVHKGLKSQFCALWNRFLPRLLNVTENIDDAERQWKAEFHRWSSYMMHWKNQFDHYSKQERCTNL
BACE-1, sequence (P56817 46-501): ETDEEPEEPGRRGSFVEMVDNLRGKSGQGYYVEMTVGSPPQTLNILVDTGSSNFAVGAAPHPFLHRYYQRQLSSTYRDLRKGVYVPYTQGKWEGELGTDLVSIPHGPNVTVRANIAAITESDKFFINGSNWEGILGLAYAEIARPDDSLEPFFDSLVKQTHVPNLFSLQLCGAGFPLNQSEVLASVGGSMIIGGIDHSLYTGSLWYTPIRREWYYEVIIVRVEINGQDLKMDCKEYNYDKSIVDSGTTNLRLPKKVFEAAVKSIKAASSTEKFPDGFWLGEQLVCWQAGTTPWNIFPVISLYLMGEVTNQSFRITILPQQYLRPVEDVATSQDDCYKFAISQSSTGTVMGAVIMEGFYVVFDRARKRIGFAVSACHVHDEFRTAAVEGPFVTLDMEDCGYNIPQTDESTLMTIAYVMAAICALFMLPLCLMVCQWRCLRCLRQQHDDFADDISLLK

On to `O=C(/C=C/c1ccccc1Cl)c1cc2ccccc2oc1=O` [CC2, 3-[(2E)-3-(2-chlorophenyl)prop-2-enoyl]-2H-1-benzopyran-2-one], for which the half-inhibitory concentration (IC50) at recombinant human MAO-A is above 40 µM; against AChE (IC50 (μM) AChE, means ± standard errors, reference compounds after preincubation for 30 min with enzymes), 40.1 ± 0.12 µM; at BChE [2] it was 7 ± 0.02 µM; in the data set with Vero cells (Chlorocebus sabaeus, Vero, 48 h, read-out: IC50 Vero cell viability), 142 µg/mL and 456 µM. In addition, the remaining activity at 10 µM on recombinant human MAO-A (read-out: residual activity at 10 μM (%) MAO-A) was 76.6 ± 1.8%; on MAO-B [1] it was 19.8 ± 5.9%; on AChE (read-out: residual activity at 10 μM (%) AChE, 10 μM), 69.4 ± 3.6%; at BChE [2] (read-out: residual activity at 10 μM (%) BChE, 10 μM) it was below 50%; on BACE-1 it was 61.1 ± 1%. The “residual activity at 10 μM (%) BChE” value on BChE [2] (10 μM) is given as 43.9 ± 3.7%. For the same molecule, the Ki on MAO-B [3] is 0.53 ± 0.04 µM; at BChE [4], 2.84 ± 0.09 µM. In addition, at MAO-B [3] (setting [8]), the “type of MAO-B inhibition” value was “competitive”. Moreover, on BChE [4] (setting [8]), the “type of BChE inhibition” value is reported as “competitive”. Moreover, the “reversibility of MAO-B inhibition” value on MAO-B [5] is recorded as “reversible”. In addition, the “reversibility of BChE inhibition” value on BChE [6] is “reversible”. For the same molecule, the viability at 48 h, 100 μg/mL in data set [7] is around 70%. The Vero cell viability with Vero cells (up to 100 μg/mL, 48 h, MTT) is above 70%. Besides, in the data set with Vero cells (up to a concentration of 100 μg/mL), the “toxicity for Vero cells” value is on record as “nontoxic; also recorded: not toxic”.
